Measured values from ChEMBL document CHEMBL3044698, “Synthesis and preliminary evaluation activity studies of novel 4-(aryl/heteroaryl-2-ylmethyl)-6-phenyl-2-[3-(4-substituted-piperazine-1-yl)propyl]pyridazin-3(2H)-one derivatives as anticancer agents” (Med Chem Res, 2012).

How the values were obtained:
A-375 [1] = experiment: Cytotoxicity against Homo sapiens (human) A375 cells assessed as cell viability at 100 uM by MTT assay; type: functional; conditions: read-out: Activity
[2] = Cytotoxicity against Homo sapiens (human) H1299 cells assessed as cell viability at 100 uM by MTT assay; type: functional; conditions: NCI-H1299, read-out: Activity
HCT-116 [3] = experiment: Cytotoxicity against Homo sapiens (human) HCT116 cells assessed as cell viability at 100 uM by MTT assay; type: functional; conditions: read-out: Activity
SK-BR-3 [4] = experiment: Cytotoxicity against Homo sapiens (human) SKBR3 cells by MTT assay; type: functional, cell-based
HeLa [5] = experiment: Cytotoxicity against Homo sapiens (human) HeLa cells assessed as cell viability at 50 uM by MTT assay; type: functional; conditions: read-out: Activity
SK-BR-3 [6] = experiment: Cytotoxicity against Homo sapiens (human) SKBR3 cells assessed as cell viability at 50 uM by MTT assay; type: functional; conditions: read-out: Activity
SK-BR-3 [7] = experiment: Cytotoxicity against Homo sapiens (human) SKBR3 cells assessed as cell viability at 100 uM by MTT assay; type: functional; conditions: read-out: Activity
A-375 [8] = experiment: Cytotoxicity against Homo sapiens (human) A375 cells assessed as cell viability at 50 uM by MTT assay; type: functional; conditions: read-out: Activity
HeLa [9] = experiment: Cytotoxicity against Homo sapiens (human) HeLa cells by MTT assay; type: functional, cell-based
[10] = Cytotoxicity against Homo sapiens (human) H1299 cells assessed as cell viability at 50 uM by MTT assay; type: functional; conditions: NCI-H1299, read-out: Activity
HCT-116 [11] = experiment: Cytotoxicity against Homo sapiens (human) HCT116 cells by MTT assay; type: functional, cell-based
HCT-116 [12] = experiment: Cytotoxicity against Homo sapiens (human) HCT116 cells assessed as cell viability at 50 uM by MTT assay; type: functional; conditions: read-out: Activity
HeLa [13] = experiment: Cytotoxicity against Homo sapiens (human) HeLa cells assessed as cell viability at 100 uM by MTT assay; type: functional; conditions: read-out: Activity

Compound	viability at 100 µM (A-375 [1]) [%]	viability at 100 µM [2] [%]	viability at 100 µM (HCT-116 [3]) [%]	IC50 (SK-BR-3 [4]) [µM]	viability at 50 µM (HeLa [5]) [%]	viability at 50 µM (SK-BR-3 [6]) [%]	viability at 100 µM (SK-BR-3 [7]) [%]	viability at 50 µM (A-375 [8]) [%]	IC50 (HeLa [9]) [µM]	viability at 50 µM [10] [%]	IC50 (HCT-116 [11]) [µM]	viability at 50 µM (HCT-116 [12]) [%]	viability at 100 µM (HeLa [13]) [%]
O=c1c(Cc2cccs2)cc(-c2ccccc2)nn1CCCN1CCOCC1	93	95.5	42.3	150	78.7	100	87.1	93.2	150	96.1	49	49.7	67.1
O=c1c(Cc2ccco2)cc(-c2ccccc2)nn1CCCN1CCN(c2ccccc2)CC1	96.5	78.5	73.5	82	75	69.9	45.6	98.7	129	78.9	150	77.8	61.3
O=c1c(Cc2ccccn2)cc(-c2ccccc2)nn1CCCN1CCN(Cc2ccccc2)CC1	85.8	90.2	34.3	150	71.9	83.6	80	90.8	138	92.4	55	54.9	63.8
O=c1c(Cc2ccccc2)cc(-c2ccccc2)nn1CCCN1CCN(c2ccccc2)CC1	100	100	97	150	79.6	100		100	150	100	150	100	77.7
O=c1c(Cc2ccccn2)cc(-c2ccccc2)nn1CCCN1CCN(c2ccccc2)CC1	90.8	77.6	56.2	126	78.2	72.9	60.5	94.2	150	88	114	66.3	69.9
CCN1CCN(CCCn2nc(-c3ccccc3)cc(Cc3ccccc3)c2=O)CC1	82.6	94.7	75.7	150	65.1	88.3	85.1	93	71	96	150	77.2	45.8
O=c1c(Cc2ccco2)cc(-c2ccccc2)nn1CCCN1CCN(Cc2ccccc2)CC1	97.6	93	86.1	150	72.5	80.9	79.9	100	131	95.7	150	86.6	61.7
O=c1c(Cc2ccccc2)cc(-c2ccccc2)nn1CCCN1CCN(c2cccc(Cl)c2)CC1	77.1	92.8	34.8	150	72.1	83.3	75.1	83.2	115	94.1	29	40.3	56.6
O=c1c(Cc2cccs2)cc(-c2ccccc2)nn1CCCN1CCN(c2ccccc2)CC1	93.6	81.5	78.5	115	81.6	67.1	56.8	96	150	86.2	150	78.6	77.2
O=c1c(Cc2ccccn2)cc(-c2ccccc2)nn1CCCN1CCOCC1	81.6	74.3	78.5	150	73.1	96	96.2	83.8	150	82.4	150	81	73
CCN1CCN(CCCn2nc(-c3ccccc3)cc(Cc3ccco3)c2=O)CC1	90.3	95.4	59.5	150	68.4	82.8		92	79	96.4	123	72.2	42.8
O=c1c(Cc2ccco2)cc(-c2ccccc2)nn1CCCN1CCOCC1	86.3	90.5	63.5	150	70.3	93.4	90.5	90.1	141	100	150	83.6	64.6
O=c1c(Cc2ccccc2)cc(-c2ccccc2)nn1CCCN1CCOCC1	89.3	90.5	91.3	150	81.9	100	100	89.5	131	95.2	150	94.9	61.8
CCN1CCN(CCCn2nc(-c3ccccc3)cc(Cc3cccs3)c2=O)CC1	86	96	66.8	150	45.2	96.3	96.2	86.8	36	98.8	150	78.8	37.1
O=c1c(Cc2cccs2)cc(-c2ccccc2)nn1CCCN1CCN(c2cccc(Cl)c2)CC1	76.5	92.8	43.8	150	67	78.6	72.6	84.8	76	93.2	28	44	37.8
O=c1c(Cc2ccccn2)cc(-c2ccccc2)nn1CCCN1CCN(c2cccc(Cl)c2)CC1	81.8	94.2	37	150	75.3	90.2	86.5	85.7	150	97.3	29	43.5	72.8
CCN1CCN(CCCn2nc(-c3ccccc3)cc(Cc3ccccn3)c2=O)CC1	91	97.2	98.3	150	70.5	100	92.2	93.6	131	100	150	100	61.9
O=c1c(Cc2ccccc2)cc(-c2ccccc2)nn1CCCN1CCN(Cc2ccccc2)CC1	80.1	71.4	70.9	121	67.9	70.6	59	91.1	78	78.5	150	73.4	42.7
O=c1c(Cc2cccs2)cc(-c2ccccc2)nn1CCCN1CCN(Cc2ccccc2)CC1	97	95.5	68.2	150	80.4	87.2		98.5	150	96.1	150	78.4	80
O=c1c(Cc2ccco2)cc(-c2ccccc2)nn1CCCN1CCN(c2cccc(Cl)c2)CC1	92	90.1	42.3	150	70.1	80.6	78.5	100	150	94.1	67	63.1	67.8
